Assay results reported in article PMC8280143, “A novel dephosphorylation targeting chimera selectively promoting tau removal in tauopathies” (Signal Transduction and Targeted Therapy, 2021).
No end group written: not given here. *: point of attachment. FITC = O=C1OC2(c3ccc(O)cc3Oc3cc(O)ccc32)c2ccc(NC(=S)*)cc21

What was measured:
[1] = test system: glycogen synthase kinase-3; conditions: cited from earlier work
Source text: (§1) By contrast, small-molecular kinase inhibitors or phosphatase enhancers generally lack specificity. […] This might bring unacceptable side-effects in the clinic. Importantly, the principle of DEPTAC can be used in future studies to design alternative chimeras specifically targeting many other types of post-tr ...

[2] = test system: inositol monophosphatase; conditions: cited from earlier work
Source text: as §1

[3] = test system: tau; conditions: cited from earlier work
Source text: as §1

[4] = test system: PP2A-Bα (PPP2R1A); test: Fluorescence polarization binding assay, PP2A-Bα; design: species or system human; conditions: 0.1 μM FITC-labeled DEPTAC; serial dilutions of PP2A-Bα; 20 mM Tris-HCl, 150 mM NaCl, 0.5 mM DTT, pH 7.4; 37 °C, 30 min
Description: (§2) Purified human tau and PP2A-Bα (PPP2R1A) were obtained from AtaGenix (Wuhan, China), and concentrated using ultrafiltration tubes (Beyotime). In basic binding assays, tau or PP2A-Bα was aliquoted into serial dilutions with a buffer containing 20 mM Tris-HCl, 150 mM NaCl, and 0.5 mM 1,4-Dithiothreitol (pH 7.4), and incubated with 0.1 μM FITC-labeled DEPTAC, FITC-labeled control peptide and FITC (9:1 vol/vol), respectively, in a black 384-well plates (Corning) under 37 °C for 30 min. In competition binding assays, a mixture of 2.5 μM tau or PP2A-Bα and 0.1 μM FITC-labeled DEPTAC were incubated with increasing amounts of unlabeled-DEPTAC under 37 °C for 30 min. Fluorescence intensity was measured by a Biotek Synergy 2 microplate reader with the wavelengths of 480 nm (60) (Ex)/560 nm (40) (Em). The polarization measurements were corrected for background contributions to the measured intensity by subtracting the parallel and perpendicular intensity readings by the vehicle-only wells from the intensity readings for each data point. Fluorescence polarization (P) was calculated by the formula P = (I║ − I┴) / (I║ + I┴), where I║ was the intensity of emitted light polarized parallel to the excitation light, and I┴ was the intensity of emitted light polarized perpendicular to the excitation light.

[5] = test system: human tau; test: Fluorescence polarization binding assay, tau; conditions: 0.1 μM FITC-labeled DEPTAC; serial dilutions of tau; 20 mM Tris-HCl, 150 mM NaCl, 0.5 mM DTT, pH 7.4; 37 °C, 30 min
Description: as §2

Molecule	action on glycogen synthase kinase-3 [1]	action on inositol monophosphatase [2]	suppression of tau hyperphosphorylation [3]	FITC-DEPTAC fluorescence polarization with increased amount of PP2A-Bα [4]	FITC-DEPTAC fluorescence polarization with increased amount of tau [5]
[Li] [lithium]	acts on other targets	acts on other targets	suppress tau hyperphosphorylation	–	–
FITC-DEPTAC: For tracing the chimera, a fluorescein FITC was conjugated at the K18 residue (YQQYQDATADEQGGSGSK(FITC)KVAVVRTPPKSPRRRRRRRR)	–	–	–	sigmoidal increases	sigmoidal increases
